Among the data in patent publication US12577231B2, “Androgen receptor PROTACS” (GlaxoSmithKline Intellectual Property Development Limited, priority 2023, dated 2026) are Dmax values, retold here.

Where only a bound is given, the exact number is not on record here.

This assay deals with T1, Androgen Receptor dual T878A/L702H mutant protein (Homo sapiens, UniProt P10275, L702H/T878A).
T1 construct: host or cells: MDA-PCa-2b
T1 sequence (P10275 1-920 L702H/T878A): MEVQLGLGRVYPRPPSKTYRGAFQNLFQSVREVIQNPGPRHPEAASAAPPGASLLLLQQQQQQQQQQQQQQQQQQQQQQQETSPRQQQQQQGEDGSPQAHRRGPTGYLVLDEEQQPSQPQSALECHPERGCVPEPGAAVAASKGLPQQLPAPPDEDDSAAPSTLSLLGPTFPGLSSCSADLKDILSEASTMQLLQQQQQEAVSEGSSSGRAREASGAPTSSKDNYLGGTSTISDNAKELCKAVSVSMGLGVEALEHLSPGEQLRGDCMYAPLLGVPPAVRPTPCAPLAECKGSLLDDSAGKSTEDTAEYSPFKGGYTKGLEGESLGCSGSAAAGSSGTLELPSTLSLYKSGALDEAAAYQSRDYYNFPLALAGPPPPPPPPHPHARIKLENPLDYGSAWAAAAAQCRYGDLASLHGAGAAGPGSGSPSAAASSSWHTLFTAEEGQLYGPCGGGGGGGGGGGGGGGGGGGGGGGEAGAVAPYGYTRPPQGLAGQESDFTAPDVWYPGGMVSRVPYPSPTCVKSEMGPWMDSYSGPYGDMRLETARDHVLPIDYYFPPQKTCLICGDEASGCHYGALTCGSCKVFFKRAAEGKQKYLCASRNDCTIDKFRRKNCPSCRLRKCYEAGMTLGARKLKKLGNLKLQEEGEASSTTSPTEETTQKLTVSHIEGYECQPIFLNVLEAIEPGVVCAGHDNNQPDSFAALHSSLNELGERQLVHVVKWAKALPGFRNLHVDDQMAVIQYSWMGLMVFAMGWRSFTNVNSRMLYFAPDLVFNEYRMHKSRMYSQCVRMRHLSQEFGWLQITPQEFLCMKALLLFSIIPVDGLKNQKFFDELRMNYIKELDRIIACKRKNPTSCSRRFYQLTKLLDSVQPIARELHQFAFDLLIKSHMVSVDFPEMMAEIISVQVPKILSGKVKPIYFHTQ
The assay can be described thus: Dual Mutant (T878A/L702H) Androgen Receptor Degradation Assay (HTRF, MDA-PCa-2b cells). The class given is cell-based. Conditions: 18 h, 18 h incubation, read-out: mean asymptote max. The method, boiled down:
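PROTACs tested as 11-point, 3-fold dilutions on 10,000 cells for 18 h at 37 °C. Remaining AR read by HTRF (665/620 nm ratio) after lysis, normalised to DMSO-treated cells (0%) and cell-free medium (100%). Relative DC50 from 4-parameter fit inflection, absolute DC50 interpolated at 50% degradation; Dmax is maximum observed degradation.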
On to `CC1(C)[C@H](NC(=O)c2ccc(N3CCC(CN4CC[C@@H](n5ncc6c(N7CCC(=O)NC7=O)cccc65)C4)CC3)c(F)c2)C(C)(C)[C@H]1Oc1ccc(C#N)c2ncccc12` [Example 36, N-((1r,3r)-3-((8-Cyanoquinolin-5-yl)oxy)-2,2,4,4-tetramethylcyclobutyl)-4-(4-(((R)-3-(4-(2,4-dioxotetrahydropyrimidin-1(2H)-yl)-1H-indazol-1-yl)pyrrolidin-1-yl)methyl)piperidin-1-yl)-3-fluorobenzamide], for which the Dmax came to 41%.

For the compound `CC1(C)[C@H](NC(=O)c2ccc(N3CCC(CN4CC[C@H](n5ncc6c(N7CCC(=O)NC7=O)cccc65)C4)CC3)c(F)c2)C(C)(C)[C@H]1Oc1ccc(C#N)c2ncccc12` [Example 37, N-((1r,3r)-3-((8-Cyanoquinolin-5-yl)oxy)-2,2,4,4-tetramethylcyclobutyl)-4-(4-(((S)-3-(4-(2,4-dioxotetrahydropyrimidin-1(2H)-yl)-1H-indazol-1-yl)pyrrolidin-1-yl)methyl)piperidin-1-yl)-3-fluorobenzamide], the Dmax is ≥ 50%.

Take `CC1(C)[C@H](NC(=O)c2ccc(N3CCC(CN4CCC(n5ncc6c(N7CCC(=O)NC7=O)cc(F)cc65)CC4)CC3)c(F)c2)C(C)(C)[C@H]1Oc1ccc(C#N)c2ncccc12` [Example 38, N-((1r,3r)-3-((8-Cyanoquinolin-5-yl)oxy)-2,2,4,4-tetramethylcyclobutyl)-4-(4-((4-(4-(2,4-dioxotetrahydropyrimidin-1(2H)-yl)-6-fluoro-1H-indazol-1-yl)piperidin-1-yl)methyl)piperidin-1-yl)-3-fluorobenzamide]: the Dmax is ≥ 50%.

`CC1(C)[C@H](NC(=O)c2ccc(N3CCC(CN4CCC(n5ncc6c(N7CCC(=O)NC7=O)nccc65)CC4)CC3)c(F)c2)C(C)(C)[C@H]1Oc1ccc(C#N)c2ncccc12` [Example 39, N-((1r,3r)-3-((8-Cyanoquinolin-5-yl)oxy)-2,2,4,4-tetramethylcyclobutyl)-4-(4-((4-(4-(2,4-dioxotetrahydropyrimidin-1(2H)-yl)-1H-pyrazolo[4,3-c]pyridin-1-yl)piperidin-1-yl)methyl)piperidin-1-yl)-3-fluorobenzamide]: the Dmax is ≥ 50%.

Regarding `CC1(C)[C@H](NC(=O)c2ccc(N3CCC(CN4CCC(n5ncc6c(N7CCC(=O)NC7=O)ccnc65)CC4)CC3)c(F)c2)C(C)(C)[C@H]1Oc1ccc(C#N)c2ncccc12` [Example 40, N-((1r,3r)-3-((8-Cyanoquinolin-5-yl)oxy)-2,2,4,4-tetramethylcyclobutyl)-4-(4-((4-(4-(2,4-dioxotetrahydropyrimidin-1(2H)-yl)-1H-pyrazolo[3,4-b]pyridin-1-yl)piperidin-1-yl)methyl)piperidin-1-yl)-3-fluorobenzamide], the Dmax is ≥ 50%.

Regarding `CC1(C)[C@H](NC(=O)c2ccc(N3CCC(CN4CCC(n5ncc6c(N7CCC(=O)NC7=O)cc(Cl)cc65)CC4)CC3)c(F)c2)C(C)(C)[C@H]1Oc1ccc(C#N)c2ncccc12` [Example 41, 4-(4-((4-(6-Chloro-4-(2,4-dioxotetrahydropyrimidin-1(2H)-yl)-1H-indazol-1-yl)piperidin-1-yl)methyl)piperidin-1-yl)-/-((1r,3r)-3-((8-cyanoquinolin-5-yl)oxy)-2,2,4,4-tetramethylcyclobutyl)-3-fluorobenzamide], the Dmax was ≥ 50%.

With `CC1(C)[C@H](NC(=O)c2ccc(N3CCC(CN4CCC(n5ncc6c(N7CCC(=O)NC7=O)cc(C(F)(F)F)cc65)CC4)CC3)c(F)c2)C(C)(C)[C@H]1Oc1ccc(C#N)c2ncccc12` [Example 42, N-((1r,3r)-3-((8-Cyanoquinolin-5-yl)oxy)-2,2,4,4-tetramethylcyclobutyl)-4-(4-((4-(4-(2,4-dioxotetrahydropyrimidin-1(2H)-yl)-6-(trifluoromethyl)-1H-indazol-1-yl)piperidin-1-yl)methyl)piperidin-1-yl)-3-fluorobenzamide], the Dmax was ≥ 50%.

For `CC1(C)[C@H](NC(=O)c2ccc(N3CCC(CN4CCC(n5ccc6c(N7CCC(=O)NC7=O)cccc65)CC4)CC3)cc2)C(C)(C)[C@H]1Oc1ccc(C#N)c2ncccc12` [Example 43, N-((1r,3r)-3-((8-Cyanoquinolin-5-yl)oxy)-2,2,4,4-tetramethylcyclobutyl)-4-(4-((4-(4-(2,4-dioxotetrahydropyrimidin-1(2H)-yl)-1H-indol-1-yl)piperidin-1-yl)methyl)piperidin-1-yl)benzamide], the Dmax was ≥ 50%.

As for `CC1(C)[C@H](NC(=O)c2ccc(N3CCC(CN4CCC(n5ncc6c(N7CCC(=O)NC7=O)cccc65)CC4)CC3)c(Cl)c2)C(C)(C)[C@H]1Oc1ccc(C#N)c2ncccc12` [Example 44, 3-Chloro-N-((1r,3r)-3-((8-cyanoquinolin-5-yl)oxy)-2,2,4,4-tetramethylcyclobutyl)-4-(4-((4-(4-(2,4-dioxotetrahydropyrimidin-1(2H)-yl)-1H-indazol-1-yl)piperidin-1-yl)methyl)piperidin-1-yl)benzamide], the Dmax is ≥ 50%.

With `CC1(C)[C@H](NC(=O)c2ccc(N3CCC(CN4CC[C@@H](n5ncc6c(N7CCC(=O)NC7=O)cccc65)[C@@H](F)C4)CC3)c(F)c2)C(C)(C)[C@H]1Oc1ccc(C#N)c2ncccc12` [Example 45, N-((1r,3r)-3-((8-Cyanoquinolin-5-yl)oxy)-2,2,4,4-tetramethylcyclobutyl)-4-(4-(((35,4R)-4-(4-(2,4-dioxotetrahydropyrimidin-1(2H)-yl)-1H-indazol-1-yl)-3-fluoropiperidin-1-yl)methyl)piperidin-1-yl)-3-fluorobenzamide], the Dmax turned out to be 49%.

As for `CC1(C)[C@H](NC(=O)c2ccc(N3CCC(CN4CC[C@H](n5ncc6c(N7CCC(=O)NC7=O)cccc65)[C@H](F)C4)CC3)c(F)c2)C(C)(C)[C@H]1Oc1ccc(C#N)c2ncccc12` [Example 46, N-((1r,3r)-3-((8-Cyanoquinolin-5-yl)oxy)-2,2,4,4-tetramethylcyclobutyl)-4-(4-(((3R,4S)-4-(4-(2,4-dioxotetrahydropyrimidin-1(2H)-yl)-1H-indazol-1-yl)-3-fluoropiperidin-1-yl)methyl)piperidin-1-yl)-3-fluorobenzamide], the Dmax was ≥ 50%.

Turning to `CC1(C)[C@H](NC(=O)c2ccc(N3CCC(CN4CCC(n5ccc6c(N7CCC(=O)NC7=O)ncnc65)CC4)CC3)c(F)c2)C(C)(C)[C@H]1Oc1ccc(C#N)c2ncccc12` [Example 47, N-((1r,3r)-3-((8-Cyanoquinolin-5-yl)oxy)-2,2,4,4-tetramethylcyclobutyl)-4-(4-((4-(4-(2,4-dioxotetrahydropyrimidin-1(2H)-yl)-7H-pyrrolo[2,3-d]pyrimidin-7-yl)piperidin-1-yl)methyl)piperidin-1-yl)-3-fluorobenzamide], the Dmax is ≥ 50%.

As for `CC1(C)[C@H](NC(=O)c2ccc(N3CCC(O)(CN4CCC(n5ncc6c(N7CCC(=O)NC7=O)cccc65)CC4)CC3)c(F)c2)C(C)(C)[C@H]1Oc1ccc(C#N)c2ncccc12` [Example 48, N-((1r,3r)-3-((8-Cyanoquinolin-5-yl)oxy)-2,2,4,4-tetramethylcyclobutyl)-4-(4-((4-(4-(2,4-dioxotetrahydropyrimidin-1(2H)-yl)-1H-indazol-1-yl)piperidin-1-yl)methyl)-4-hydroxypiperidin-1-yl)-3-fluorobenzamide], the Dmax is ≥ 50%.

On to `CC1(C)[C@H](NC(=O)c2ccc(N3CCC4(CC3)CC(N3CCC(n5ncc6c(N7CCC(=O)NC7=O)cccc65)CC3)C4)c(F)c2)C(C)(C)[C@H]1Oc1ccc(C#N)c2ncccc12` [Example 49, N-((1r,3r)-3-((8-Cyanoquinolin-5-yl)oxy)-2,2,4,4-tetramethylcyclobutyl)-4-(2-(4-(4-(2,4-dioxotetrahydropyrimidin-1(2H)-yl)-1H-indazol-1-yl)piperidin-1-yl)-7-azaspiro[3.5]nonan-7-yl)-3-fluorobenzamide], for which the Dmax is ≥ 50%.

Take `CC1(C)[C@H](NC(=O)c2ccc(N3CCC(CN4CCC(n5ncc6c(N7CCC(=O)NC7=O)c(F)ccc65)CC4)CC3)c(F)c2)C(C)(C)[C@H]1Oc1ccc(C#N)c2ncccc12` [Example 50, N-((1r,3r)-3-((8-Cyanoquinolin-5-yl)oxy)-2,2,4,4-tetramethylcyclobutyl)-4-(4-((4-(4-(2,4-dioxotetrahydropyrimidin-1(2H)-yl)-5-fluoro-1H-indazol-1-yl)piperidin-1-yl)methyl)piperidin-1-yl)-3-fluorobenzamide]: the Dmax is ≥ 50%.
